“Also recorded” adds a separate entry of the source.
Experiments:
SW1 mouse melanoma [1] = experiment: SW1 tumor growth in mice fed ±L-fucose and treated with anti-CTLA4 or anti-PD1; format: in vivo; conditions: SW1/C3H/HeJ model, oral 100 mM L-fucose from day 14; antibodies 20 mg/kg twice weekly
Protocol: SW1 tumor growth curves in mice fed±100 mM L-fucose treated with either control (PBS) or […] (17A) or α-PD1 (17B). Combinations are color-coded as indicated. N=8 mice per condition. L-fucose was administered in the water starting on day 14 (refreshed twice weekly); α-CTLA4 or α-PD1 was administered (20 mg/kg each) twice weekly starting day 14. Compared with PBS control: #: p<0.001; *: p<0.05:
(§1) Fucosylation of HLA-DRB1 occurs on amino acid N48 (mutation to G abolishes interaction with fucose-binding AAL lectin) (FIG. 16A). Increasing fucosylation (L-fucose treatment) promotes cell surface abundance of HLA-DRB1 (which is expected to increase CD4^+ T cell activation) (FIG. 16B). […] A lectin-mediated proximity ligation technique was developed to visualize fucosylated HLA-DRB1 in cells and tissues (FIG. 18).

HLA-DRB1 = experiment: Flow cytometry of cell surface presentation, normalized to PKH26; format: cell-based, human; conditions: WM793 cells, L-fucose treatment (FIG. 16B)
Protocol: […] Stained cells were subjected to flow cytometric analyses and quantitation of protein signal/PKH26 signal to quantitate protein per relatice surface area.
FIGS. 16A and 16B show HLA-DRB1 is fucosylated on N48, and fucosylation promotes its cell surface presentation. […] AAL or HLA-DRB1 signals were normalized to PKH26 (total membrane stain).
To determine molecular mechanisms underlying the effects of fucosylation, a click-chemistry-based proteomic screen was performed to identify all fucosylated proteins in melanoma cells. 2 fucosylated immunomodulatory proteins, HLA-A and HLA-DRB1, were identified in melanoma cells. Fucose-binding lectin pulldown and immunoblot analysis confirmed the i) the expression and ii) the fucosylation of these 2 HLA proteins in melanoma cells, and further, indicate that their fucosylation is reduced when comparing patient-matched primary vs. metastatic cell lines (FIGS. 6A & 6C). The proximity ligation analysis technique, a cutting edge technique conventionally implemented to visualize 2 directly interacting proteins or post-translationally modified species of specific proteins when antibodies for the modifications are available (e.g., phosphorylated Tyr using an anti-phospho-Tyr antibody). […]

SW1 mouse melanoma [2] = experiment: Growth of control, H2K1- or IEβ-knocked down SW1 tumors in mice fed ±100 mM L-fucose water; format: in vivo
Source text: N=7 mice/condition. •:p<0.01. […] (*initiate L-fucose).
as §1

mouse melanoma model = experiment: Mouse melanoma model, dietary fucose supplementation: tumor growth and metastasis; format: in vivo
Protocol: (§2) To determine whether dietary or genetic modulation of fucosylation affects tumor growth and metastasis, we previously studied a mouse melanoma model in which tumor fucosylation was increased either by dietary supplementation (FIG. 2A) with 100 mM fucose or by overexpressing mouse FUK (FIG. 2B). […] To determine whether fucosylation affects tumor infiltration by immune cells, Immunofluorescent staining analysis of CD45 (general leukocyte marker, red) and DAPI (blue) was performed (FIG. 2C). To determine whether fucosylation affects tumor infiltration by NK cells, immunofluorescent staining analysis for DX5 (an NK cell marker, red) and DAPI (blue) was performed (FIG. 2D). Both NK cells and CD4+ T cells were elevated in samples from fucose supplemented mice.

SW1 mouse melanoma cells = experiment: SW1 mouse melanoma tumor growth in C3H mice fed control or L-fucose water, with or without CD4+/CD8+ T cell depletion; format: in vivo
Protocol: (§3) To determine which immune cell populations were affected by L-fucose, another mouse melanoma model treated with control or L-fucose-supplemented water was used. First, 1.25×10^6 SW1 mouse melanoma cells were injected into the back right flanks of the mice and allowed the tumors to grow to 150 mm^3. At 150 mm^3 (14 days), 100 mM L-fucose was administered via the drinking water to half of the mice. Tumor growth was monitored (FIGS. 3A and 3B). Total and specific subpopulations of tumor-infiltrating lymphocytes were assessed by cell flow cytometric analysis (FIGS. 3C and 3D). Assessed populations included F4/80 (macrophage)-, Gr-1 (MDSCs)-, Cd11c (Dendritic cells)-, and DX5 (NK cells)-positive cells. For T-cells, we probed for CD3 (general T-cell marker) and further for CD4 and CD8 (for those T cell subpopulations). Of the CD4-positive cells, CD25 positive cells was used to elucidate the T regulatory cells. […] Both CD4 and CD8 positive T cells (CD3+ cells) increased in response to fucose. However, myeloid derived suppressor cells (MDSCs) decreased in response to dietary fucose supplementation.
This SW1 melanoma tumor/C3H mouse isogenic model was recapitulated to profile—in detail—tumor-infiltrating immune populations. >65% reduced tumor growth was observed during dietary L-fucose supplementation (FIG. 4A). […]

[3] = tested on: SW1 mouse melanoma tumors; experiment: Flow cytometric analysis of tumor-infiltrating lymphocytes in SW1 tumors; format: in vivo; conditions: for tumor-infiltrating CD4+ and CD8+ T cells: dietary fucose vs control diet
Protocol: as §3
This SW1 melanoma tumor/C3H mouse isogenic model was recapitulated to profile—in detail—tumor-infiltrating immune populations. >65% reduced tumor growth was observed during dietary L-fucose supplementation (FIG. 4A). […] Although most tumor-suppressive immune cell types were increased in the fucosylation-high, smaller tumors, tumor-infiltrating CD4+ and CD8+ T cells were most increased-doubled-in these tumors compared to control diet tumors (FIG. 4B, left and right). […] The presence and cytolytic activity of CD4+ T cells in tumors has been correlated with better patient survival rates and increased responsiveness to immunotherapies, respectively.

[4] = tested on: SW1 mouse melanoma tumors; experiment: as above; format: in vivo; conditions: L-fucose treatment, CD4+ T cell-depleted mice (FIG. 4D)
melanoma tumors = experiment: Immunofluorescent staining of tumors for immune cell infiltration (CD45, DX5); format: in vivo, mouse; conditions: for infiltration of tumors by CD45+ immune cells (leukocytes) and NK cells: dietary fucose supplementation
Protocol: as §2

1205Lu melanoma cells = experiment: LDH-release cytotoxicity assay, NK cell co-culture with pre-treated melanoma cells; format: cell-based, human; conditions: 1205Lu cells pre-treated with 250 μM, 8 h co-culture
Protocol: After 8 h, LDH levels released in the media were measured. *=p 0.02; •=p<0.001. FIGS. 5C and 5D show Immunoblot analysis using AAL lectin (another fucose-binding lectin) was performed to confirm the effects of FUTi (C) or L-fucose (D) on 1205Lu cells (96 h treatment). (•: p-value≥0.02)(*: p-value≥0.002).
The possibility that tumor fucosylation can directly activate the tumor cell-killing activity of NK cells was explored. To assay for this possibility, a lactate dehydrogenase (LDH)-release-based assay was used in which the fucosylation of LU1205 melanoma cells was modulated prior to co-culture with NK cells. Specifically, primary NK cells isolates (5A) or immortalized NK92 cell line (5B) were co-cultured with 1205Lu melanoma cells that were pre-treated with DMSO, 250 μM pan-fucosyltransferase inhibitor (FUTi), or 250 μM L-fucose for 8 hours. Non-radioactive LDH-release cytotoxicity assay was performed to measure extent of NK cell-mediated killing. […] (•: p-value≥0.02) (*: p-value≥0.002).

RPS3 = RPS3 fucosylation by lectin pull-down after cellular stressors; format: cell-based, human; conditions: melanoma cells treated 24-48 h, lectin PD (FIG. 12)
Source text: Specifically, (11A) RPS3 level in increased in melanoma cells relative to primary melanocytes (HEMN, human epidermal melanocytes). (11B) RPS3 is increased in melanoma through progression in human samples by TMA. TMA stained and analyzed by AQUA at Moffitt Cancer Center Department of Clinical Testing Development Core Facility. (11C) Nuclear RPS3 level increases with stage in matched primary and metastatic (MET) samples relative to HEMN cells (cell fractions analyzed by western blot [left]; cells analyzed by immunofluorescence [right]). (11D) Expression of RPS3-mDDK in vertical growth phase cells confers behavior associated with metastatic disease. Increased anchorage-independent growth [left], increased motility [right]. It was noted that Fucosylated RPS3 level increases in response to cellular stressors. Melanoma cells treated for 24-48 h with serum deprivation (SD), thapsigargin (T, thap) or mutant BRAF-inhibitor (Plexxikon, PLX) and assayed for RPS3 fucosylation by lectin PD (FIG. 12).

For `C[C@H](O)[C@@H](O)[C@@H](O)[C@H](O)C=O` [L-fucose], which “suppression of melanoma growth compared with checkpoint antibodies” value (SW1 mouse melanoma [1]) is on record?
The value was “more significantly than anti-CTLA4 or anti-PD1 alone; also recorded: more tumor suppressive than α-CTLA4 or α-PD1 alone”.

What about the “cell surface abundance of HLA-DRB1” value (HLA-DRB1) of the same molecule?
The value was “promotes”.

What about the “difference in ±L-fuc tumor growth curves in H2K1 knocked-down tumors” value (SW1 mouse melanoma [2]; shH2K1, ±100 mM L-fucose water) of the same molecule?
The value was “not significant”.

What about the “L-fucose-triggered tumor suppression in IEβ (HLA-DRB1 ortholog) knocked-down tumors” value (SW1 mouse melanoma [2]; shIEβ vs control shRNA (SCR), ±100 mM L-fucose water) of the same molecule?
Its value is “abrogates; also recorded: not significant”.

What about the “reduction in tumor growth” value (mouse melanoma model; L-fucose supplementation, earlier model) of the same molecule?
Its value is over 50%.

What about the “block of tumor growth and metastasis” value (mouse melanoma model; dietary L-fucose supplementation, mouse models) of the same molecule?
The value was over 50%.

And the tumor suppression (mouse melanoma model; dietary supplementation with 100 mM fucose (FIG. 2A))?
Its tumor suppression is “increased tumor suppression”.

What about the “L-fucose-triggered tumor suppression after loss of CD4+ T cells” value (SW1 mouse melanoma cells; CD4+ T cell-immunodepleted mice (FIG. 4C left)) of the same molecule?
Its value is “abrogated tumor suppression”.

What about the reduced tumor growth (SW1 mouse melanoma cells; SW1/C3H model, dietary 100 mM L-fucose in water, 45 days (FIG. 4A)) of the same molecule?
Its reduced tumor growth is over 65%.

What about the “increase of NK cells, T cells (CD4+ and CD8+), dendritic cells and macrophage” value ([3]; administration of fucose) of the same molecule?
Its value is 10-50 fold.

What about the “overall immune infiltration of tumors” value ([3]; dietary fucose supplementation, 100 mM in drinking water) of the same molecule?
The value was “increases”.

What about the “myeloid derived suppressor cells (MDSCs) in tumors” value ([3]; dietary fucose supplementation, listed as fucose) of the same molecule?
The value was “decrease”.

What about the “tumor-infiltrating CD4+ and CD8+ T cells” value [3] of the same molecule?
Its value is “doubled”.

And the “tumor-infiltrating CD4+ and CD8+ T cells” value ([3]; listed as fucose)?
Its value is “increase”.

And the “infiltrating immune cells per gram of tumor vs control diet” value ([3]; tumors from L-fucose-supplemented mice)?
The value was 10-50 fold.

What about the “numbers of intratumoral CD8+ T cells, CD11c+ dendritic cells and NK cells” value [4] of the same molecule?
Its value is “reduced numbers”.

What about the “infiltration of tumors by CD45+ immune cells (leukocytes) and NK cells” value (melanoma tumors) of the same molecule?
The value was “significant increases”.

What about the “infiltration of tumors by CD45+ immune cells (leukocytes) and NK cells” value (melanoma tumors; listed as fucose) of the same molecule?
The value was “increased”.

And the “NK cells and CD4+ T cells in tumor samples” value (melanoma tumors; fucose supplemented mice, immunofluorescence (FIGS. 2C, 2D))?
The value was “elevated”.

And the “NK cell-mediated tumor-cell killing (LDH release), immortalized human NK cells” value (1205Lu melanoma cells)?
Its value is “sufficient to induce the tumor-cell killing activity”.

What about the “NK cell-mediated tumor-cell killing (LDH release), primary human NK cells” value (1205Lu melanoma cells) of the same molecule?
The value was “sufficient to induce the tumor-cell killing activity”.

For `C/C=C(/C)C(=O)O[C@H]1C(C)=C2[C@H]([C@@H]1OC(=O)CCCCCCC)[C@@](C)(OC(C)=O)C[C@H](OC(=O)CCC)[C@@]1(O)[C@H]2OC(=O)[C@@]1(C)O` [thapsigargin], which “fucosylated RPS3 level” value (RPS3) is on record?
Its value is “increases”.

From patent US11911404B2, “Fucosylation and immune surveillance in melanoma” (H. LEE MOFFITT CANCER CENTER AND RESEARCH INSTITUTE, INC., priority 2017, dated 2024)
